Test results from US10544134B2, “4-substituted coumarin derivatives and preparation methods and uses thereof” (SI CHUAN UNIVERSITY, priority 2015, dated 2020).
Like-named read-outs stand apart in the source and are kept apart here. Marks after values point to notes of the source that are not given here.

Assays:
[1] = test system: ovarian cancer cell A2780s; test: Tumor cell proliferation inhibitory activity test in vitro (MTT); type: cell-based; conditions: Homo sapiens, sensitive cells, 72 hours
Text: (§1) Human non-small cell lung cancer cell line NCI-H460, human small cell lung cancer cell line NCI-H446, human hepatocellular carcinoma cell strain HepG2, human colon carcinoma cell strain HCT116, human prostate cancer PC-3, human melanoma A375, colon carcinoma cell HCT-8, breast cancer cell MCF-7, ovarian cancer cell A2780s, drug-resistant ovarian cancer cell A2780/T, drug-resistant colon cancer cell HCT-8/T and doxorubicin-resistant breast cancer cell MCF-7/ADR are obtained from American Type Culture Collection (ATCC) and are cultured and preserved by the cell bank of State Key Laboratory of Biotherapy of Sichuan University. Above tumor cells are routinely cultured in DMEM culture medium containing 10% fetal bovine serum, 100 U·mL-1 penicillin and 100 mg·L−1 streptomycin, and in an incubator at 37° C. and with saturated humidity and 5% CO2 concentration.
(§2) Fill diluted cell suspension in the 96-well plate with 1000-10000 cells per well and incubate it in CO2 incubator overnight.
(§3) Replace with new medium containing various concentrations of compounds to be tested for the test group and replace with fresh medium with equal volume for the control group, each group is arranged with 5 parallel wells and incubated in an incubator at 37° C. and with 5% CO2 concentration.
(§4) Discard the supernatant after 72 hours, add 200 μL freshly prepared serum-free medium containing 0.2 mg/mL MTT into each well, continue to incubate at 37° C. for 1-4 hours, then stop incubation, carefully remove the culture supernatant in the wells and add 200 uL DMSO (dimethyl sulfoxide), oscillate with a miniature ultrasonic oscillator for 15-20 minutes to make the crystal fully dissolved and mixed. Determine OD values using a microplate reader at 570 nm with a reference wavelength of 450 nm.
(§5) Draw curves based on the growth inhibition rate for tumor cells of the same sample with different concentrations to get dose-response curve, so as to calculate IC50. Repeat each test for 3 times, measure IC50 (μM) or nanomolor concentration (nM) of compounds in different tumor cells.

breast cancer cell MCF-7 = test: as above; type: cell-based; conditions: Homo sapiens
Text: as §1, §2, §3, §4, §5

[2] = test system: drug-resistant ovarian cancer cell A2780/T; test: as above; type: cell-based; conditions: Homo sapiens, drug-resistant cells, 72 hours
Text: as §1, §2, §3, §4, §5

melanoma A375 = test: as above; type: cell-based, human; conditions: Homo sapiens, A-375, 72 hours, read-out: IC50 of compounds for tumor cells, Activity, A375
Text: as §1, §2, §3, §4, §5

[3] = test system: colon carcinoma cell HCT116; test: as above; type: cell-based, human; conditions: Homo sapiens, HCT-116, 72 hours, read-out: IC50 of compounds for tumor cells, Activity, HCT116
Text: as §1, §2, §3, §4, §5

prostate cancer PC-3 = test: as above; type: cell-based, human; conditions: Homo sapiens, 72 hours, read-out: IC50 of compounds for tumor cells, Activity, PC-3
Text: as §1, §2, §3, §4, §5

[4] = test system: non-small cell lung cancer cell line NCI-H460; test: as above; type: cell-based, human; conditions: Homo sapiens, NCI-H460, 72 hours, read-out: IC50 of compounds for tumor cells, Activity, H460
Text: as §1, §2, §3, §4, §5

[5] = test system: hepatocellular carcinoma cell HEPG2; test: as above; type: cell-based, human; conditions: Homo sapiens, HepG2, 72 hours, read-out: IC50 of compounds for tumor cells, Activity, HEPG2
Text: as §1, §2, §3, §4, §5

[6] = test system: microtubule in hepatocellular carcinoma cell HepG2; test: Depolymerization on microtubule by immunofluorescence technique; type: cell-based, human; conditions: HepG2, 16 h, three concentrations
Text: Place round coverslips into 6-well plate, plate hepatocellular carcinoma cell HepG2 in the 6-well plate and make the cells adhere to the round coverslips.

[7] = test system: colon carcinoma cell HCT-8; test: Tumor cell proliferation inhibitory activity test in vitro (MTT); type: cell-based; conditions: Homo sapiens, sensitive cells, 72 hours
Text: as §1, §2, §3, §4, §5

[8] = test system: doxorubicin-resistant breast cancer cell MCF-7/ADR; test: as above; type: cell-based; conditions: Homo sapiens, NCI/ADR-RES, drug-resistant cells, 72 hours
Text: as §1, §2, §3, §4, §5

plural tumor cells = conditions: cited from earlier work
[9] = test system: mouse colon carcinoma C26; test: Pharmacodynamics in tumor-bearing mice, colon carcinoma C26 model
Method: Collect tumor cells under aseptic conditions, adjust cell density to 5×10^7 cells/mL with sterilized physiological saline, subcutaneously inoculate 0.2 mL into armpit and back of nude mice, remove the tumor when it grew to 1 cm diameter under aseptic conditions, slice it into 1 mm×1 mm tumor blocks and evenly and subcutaneously inoculate it into armpit and back of nude mice for subculture. Remove the tumor under aseptic conditions after 2 subcultures and when it grew to 1 cm diameter, slice it into 1 mm×1 mm tumor blocks and evenly and subcutaneously inoculate it into armpit and back of nude mice. Conduct random grouping of animals after 7 days when the tumor grew to 100-300 mm^3 and perform tail intravenous injection (i.v.) once per two days, with dosages and administration methods shown in Table 3 and Table 4.
(1) Tumor volume (TV), relative tumor volume (RTV) and relative tumor proliferation rate: measure long diameter and short diameter of tumor in every two days using a vernier caliper or ruler with 1/50 mm precision and dynamically observe anti-tumor effects of tested drugs.
Formula for calculating tumor volume (TV) is: TV (mm3)=a×b^2×π/6; wherein a and b stand for long diameter and short diameter respectively.
Calculate relative tumor volume (RTV) based on the measured results with formula: RTV=Vt/V0, wherein V0 stands for the measured TV of each group at the time of being grouped for administration (i.e. d0) and Vt stands for the TV value of each group for every measurement.
The indicator used to evaluate anti-tumor activity is the relative tumor proliferation rate T/C (%), with the calculating formula as following:
TRTV: relative tumor volume of treated group; CRTV: relative tumor volume of negative control group.
Kill the animal at the end of treatment, dissect and remove the tumor, weigh the tumor and take a picture. The tumor inhibition rate (%) is calculated as the following formula:

[10] = test system: human umbilical vein endothelial cells (HUVECs); test: Angiogenesis test on HUVECs; type: cell-based; conditions: Matrigel, 8 h treatment
Method: (§8) Obtain neonate umbilical cords from clinical sources after being approved by relevant authorities, put them into sterile PBS solution, provide ice bags at the external to keep them under low temperature, and return to the clean bench to operate. Insert a blunt needle into the human umbilical vein and wash with sterile PBS solution for multiple times until cleaning up the tainted blood. Clamp the lower end of the cord with surgical clamps, add collagenase with 1 mg/mL concentration (purchased from Roche) for digestion for 15 to 20 minutes at room temperature and shake the cord up and down at intervals. After digestion, open the surgical clamp at the lower end, let the digestive solution flow into a 50 mL centrifuge tube and wash the cord for 2-3 times with sterile PBS solution. Centrifuge the collected solution for 3 minutes at 1500 rpm. Discard the supernatant, resuspend cells with EBM-2 medium (purchased from lonza) containing various growth factors and incubate them in an incubator at constant temperature of 37° C. with 5% CO2 concentration.
Place Matrigel (purchased from Becton Dickinson (BD)) at 4° C. and make it in liquid state; precool the pipette tip, 96-well plate and EP tube to be used in the test.
Add Matrigel into the 96-well plate at 50 μL/well and incubate it in an incubator at 37° C. with CO2 concentration for 45 min to make it solidify. […]

HCT-8/V = test: Tumor cell proliferation inhibitory activity test in vitro (MTT); type: cell-based; conditions: Homo sapiens, drug-resistant cells, 72 hours
[11] = test system: human umbilical vein endothelial cells (HUVECs); test: Wound healing test on HUVECs; type: cell-based; conditions: 24 h of cells migration
Method: as §8
Collect HUVECs between the 3rd to 7th subculture generations and plate them in the 6-well plate. When the cells were about to form a confluent monolayer of cells, change the medium into a serum-free medium to starve the cells for 6 h. […]

[12] = test system: taxol-resistant ovarian cancer cell A2780/Taxol; test: Pharmacodynamics in tumor-bearing nude mice, A2780/Taxol model; type: in vivo, mouse
Text: (§6) Test condition: animal house of SPF level, use permit No. of experiment animals: SYXK (J) 2015-0023
(§7) Weigh the mouse and measure length and width of tumor using a vernier caliper in every two days, perform cervical dislocation for the nude mice after 20 days of drug administration, remove the tumor tissues, weigh and take a picture. Calculate tumor inhibition rate (%) eventually to evaluate anti-tumor effects.

[13] = test system: human ovarian cancer cell A2780S; test: Pharmacodynamics in tumor-bearing nude mice, A2780S model; type: in vivo, mouse
Text: as §6, §7

tumor = conditions: cited from earlier work
[14] = MCF7, 72 hours, read-out: IC50 of compounds for tumor cells, Activity, MCF-7
[15] = MCF7, sensitive cells, 72 hours, read-out: IC50/nM MCF-7
[16] = subcutaneously transplanted mouse colon carcinoma C26, 5 mg/kg i.v. once/two days
[17] = cells marked (μM), read-out: IC50 MCF-7/ADR
[18] = A2780/T model, 30 mg/kg intraperitoneal once/seven days
[19] = cells marked (μM), read-out: IC50 HCT-8/V
[20] = A2780s model, 30 mg/kg intraperitoneal once/seven days

Work on `COc1ccc(N(C)c2cc(=O)oc3ccccc23)cc1OC(=O)C1CCCC1` [COUM-73, 4-(N-methyl-N-(4-methoxy-3-(cyclopentyl-carbonyloxy)benzene)-amino) Coumarin] yielded an IC50 [1] of 1.68 ± 0.075 nM, an IC50 (breast cancer cell MCF-7; [14]) of 0.01 to 10 nM and an IC50 [2] of 3.34 ± 0.101 nM. For the same compound, the IC50 (melanoma A375) was 0.01 to 10 nM, the IC50 [3] was 0.01 to 10 nM and the IC50 (prostate cancer PC-3) was 0.01 to 10 nM. The IC50 [4] was 0.01 to 10 nM and the IC50 [5] was 0.01 to 10 nM.
In the case of `COc1ccc(N(C)c2nc(C)nc3ccccc23)cc1` [MPC-6827], the “Inhibition of polymerization of microtubule (immunofluorescence observation)” value [6] is reported as “fails to form orderly filamentous structures due to inhibited polymerization”, the IC50 [1] is reported as 3.16 ± 0.034 nM and the IC50 [7] is reported as 3.12 ± 0.066 nM. It also gave an IC50 (breast cancer cell MCF-7; [14]) of 0.01 to 10 nM, an IC50 (breast cancer cell MCF-7; [15]) of 0.581 ± 0.004 nM and an IC50 [2] of 4.11 ± 0.062 nM. For the same compound, the IC50 ([8]; read-out: IC50/nM MCF-7/ADR) was 0.699 ± 0.053 nM, the IC50 (plural tumor cells) was 1 to 10 nM and the “Mouse weight during the treatment” value ([9]; colon carcinoma C26 model, 5 mg/kg i.v. once/two days) was “significant drops in weight and even died”. For the same compound, the “Average tumor weight” value [9, 16] was 0.525 g, the “Tumor inhibition rate (%)” value [9, 16] was 78.66% and the “Inhibition of angiogenesis of HUVECs” value [10] was “inhibit angiogenesis of HUVECs in a dose-dependent manner”. The IC50 (HCT-8/V; read-out: IC50/nM HCT-8/V) was 3.75 ± 0.131 nM, the “Inhibition of migration of HUVECs” value [11] was “inhibit migration of HUVECs in a dose-dependent manner” and the IC50 (melanoma A375) was 0.01 to 10 nM. It also gave an IC50 [3] of 0.01 to 10 nM, an IC50 (prostate cancer PC-3) of 0.01 to 10 nM and an IC50 [4] of 0.01 to 10 nM. For the same compound, the IC50 [5] was 0.01 to 10 nM.
`CC(=O)O[C@H]1C(=O)[C@@]2(C)[C@H]([C@H](OC(=O)c3ccccc3)[C@]3(O)C[C@H](OC(=O)[C@H](O)[C@@H](NC(=O)c4ccccc4)c4ccccc4)C(C)=C1C3(C)C)[C@]1(OC(C)=O)CO[C@@H]1C[C@@H]2O` [Taxol] showed an IC50 [1] of 58.1 ± 24.1 nM, an IC50 [7] of 37 ± 23.9 nM and an IC50 (breast cancer cell MCF-7; [15]) of 32.3 ± 19.5 nM. For the same compound, the IC50 [2] was 8120 ± 185 nM, the IC50 [8, 17] was 9150 nM and the Death rate [12, 18] was 0/6. For the same compound, the “T/C (%)” value [12, 18] was 75.4%, the “Tumor volume (mm^3) Final” value [12, 18] was 936.4 ± 347.9^ mm^3 and the “Tumor volume (mm^3) Initial” value [12, 18] was 155.6 ± 20.6 mm^3. For the same compound, the “Tumor weight (g) X ± SD” value [12, 18] was 0.79 ± 0.41 ^ g, the “Tumor weight Inhibition rate %” value [12, 18] was 37.7% and the “Mouse weight (g) Final” value ([12]; mouse, in vivo, ip, 30 mg/kg) was 19.4 ± 1.0 g. The “Mouse weight (g) Initial” value ([12]; mouse, in vivo, ip, 30 mg/kg) was 20.3 ± 0.8 g, the IC50 (HCT-8/V; [19]) was 189 ± 52 nM and the Death rate [13, 20] was 0/6. For the same compound, the “Mouse weight (g) Final” value [13, 20] was 18.2 ± 0.4 g, the “Mouse weight (g) Initial” value [13, 20] was 21.0 ± 0.7 g and the “T/C (%)” value [13, 20] was 13.1%. The “Tumor volume (mm^3) Final” value [13, 20] was 184.8 ± 26.6 ^c mm^3, the “Tumor volume (mm^3) Initial” value [13, 20] was 138.1 ± 25.6 mm^3 and the “Tumor weight (g) X ± SD” value [13, 20] was 0.28 ± 0.07 ^c g. For the same compound, the “Tumor weight Inhibition rate %” value [13, 20] was 82.9% and the “Weight drop in average” value ([13]; mouse, in vivo) was “about 2 g”.
Compound `CC[C@]1(O)C[C@H]2CN(CCc3c([nH]c4ccccc34)[C@@](C(=O)OC)(c3cc4c(cc3OC)N(C=O)[C@H]3[C@@](O)(C(=O)OC)[C@H](OC(C)=O)[C@]5(CC)C=CCN6CC[C@]43[C@@H]65)C2)C1` [Vincristin, vincristin] has an IC50 [1] of 22.4 ± 2.68 nM, an IC50 [7] of 14.8 ± 3.15 nM and an IC50 (breast cancer cell MCF-7; [15]) of 54.7 nM. For the same compound, the IC50 [2] was 476 ± 76.1 nM, the IC50 [8, 17] was 5850 ± 1390 nM and the IC50 (HCT-8/V; [19]) was 23 ± 4 nM.
In the case of `COc1ccc2c(-c3ccc(OC)c(O)c3)cc(=O)oc2c1` [compound C], the “IC50 value, anti-tumor activity” value (tumor) is listed as “dozens of nanomolar”.
